Assay results taken from paper PMC6328430, “Radiation dosimetry of [^68Ga]PSMA-11 in low-risk prostate cancer patients” (EJNMMI Physics, 2019).
Like-named read-outs stand apart in the source and are kept apart here.

Legend:
[1] = Absorbed organ dose and effective dose calculation (IDAC-Dose 2.1, ICRP 133/103; Monte Carlo for eye lenses); type: in vivo, human
Description: (§1) Volumes of interest (VOIs) were delineated for the kidneys, liver, lungs, spleen, salivary glands, and total body by a medical physicist and a radiologist using RayStation (RaySearch Laboratories, Stockholm, Sweden). Using the MICE Toolkit (Nonpi Medical AB, Umea, Sweden), the median VOI activity-concentration (Cmedian(t)) was extracted and used to calculate the fraction injected activity for each imaging session. For a specific VOI, the retention, U(t), in an organ with mass M [g], expressed as fraction of injected activity, is calculated as:1 Ut=Cmediant×M/A0 where A0 is the administered activity [Bq] and t is the time after administration. […] The remaining activity was assumed to be homogeneously distributed in the rest of the body, and the remaining activity in the body could therefore be calculated by subtracting the activities in the specific organ, blood, urinary bladder content, and urine from the decay-corrected administered activity.
(§2) The uptake was fitted to a bi-exponential or mono-exponential function of time post-injection using the software SAAM II (The Epsilon Group, Charlottesville, VA, USA). This function is used to calculate the time-integrated activity coefficient (TIAC), i.e., total number of decays per administered activity. […] The cumulated activity in the urinary bladder was calculated in a similar way, using measured data for urine plus bladder content. ICRP uses 3.5-h voiding interval for calculating absorbed doses from radiopharmaceuticals; thus, the activity in the bladder is zeroed at 3.5 and 7 h post-injection, before calculating the cumulated activity in accordance with Eq. 2.
The absorbed dose to the organs was calculated using the software IDAC-Dose 2.1 [22] which uses specific absorbed fractions for photons and electron from ICRP Publication 133 [19], […]
To calculate the dose to the lacrimal glands, spherical shape was assumed, with a mass of 0.7 g each, using the “sphere module” in IDAC-Dose 2.1. […] The lens of the eyes is a target organ in ICRP Publication 133 [19]; however, the lacrimal glands are not identified as source organs in the ICRP phantoms and an absorbed fraction is not presented in this report. Monte Carlo methods were therefore used to calculate absorbed fractions using the ICRP/ICRU voxel phantom for an adult. For the image activity concentration, the highest voxel was used, instead of the median. The reason for this is that the small size of the glands results in a significant “partial volume effect” [26].

[2] = Blood activity clearance from venous blood samples (bi-exponential fit); type: in vivo, human
Experimental: Venous blood samples were drawn at 45 min, 85 min, 175 min, and 245 min post-injection. The activity concentrations of these samples were measured in the abovementioned well counter. No metabolite analysis of the samples was performed, since this is beyond the scope of this dosimetry study.
as §2
TIACs for the organs used in the dose calculations can be seen in Table 1. […] The fitted blood curve was calculated on pooled normalized data and forced through the point 100% at time zero.

[3] = cited from earlier work
[4] = PET/CT organ uptake and time-integrated activity coefficients after i.v. [^68Ga]PSMA-11; type: in vivo, human
Experimental: The PET/CT scanning was performed at the University Hospital of Umeå on a Discovery 690 [18] The first session, aimed to depict the fast tracer distribution, consisted of three head-to-thigh scans commencing at times 0, 10, and 20 min post-injection, followed by a head-to-toe whole-body scan approximately 30 min post-injection. The remaining three acquisitions were all head-to-toe scans, commencing at 90 min, 180 min, and 255 min post-injection. CT scans were acquired with 120 kV, 10 mA, 0.5 s/revolution, and 2.5-mm slice thickness, except for the whole-body scan at the first session which was acquired with 30 mA (Fig. 1) to provide adequate anatomical information. All PET scans were acquired using time-of-flight mode, with 60 s per bed position, and 11 slices bed overlap. PET images, corrected for attenuation and scatter, were reconstructed using the scanner implementation of the 3D iterative ordered subset expectation maximization (OSEM) reconstruction including time-of-flight (named VuePoint HD ViP) with 2 iterations, 24 subsets, 6.4-mm post-filter, and a 70-cm field-of-view, yielding a 128 × 128 matrix (5.5 × 5.5 × 3.27 mm^3 voxels). PET images were decay-corrected to start of each scan.
Urine was collected up to 4 h post-injection, and the total voided volume was weighed. From each voided volume, a 1-mL sample was weighed and radioactivity was measured using a well counter (NaI-scintillator), and the activity concentration in Bq/mL was calculated. The activity concentration and voided volume were used to calculate the total voided activity.
as §1, §2

[5] = six participants, sphere of 0.7 g
[6] = bi-exponential fit, pooled normalized data
[7] = median of six patients, ICRP/ICRU voxel phantom organ mass

O=C([O-])CN(CCN(CC(=O)[O-])Cc1cc(CCC(=O)NCCCCCC(=O)NCCCC[C@H](NC(=O)N[C@@H](CCC(=O)O)C(=O)O)C(=O)O)ccc1[O-])Cc1cc(CCC(=O)O)ccc1[O-].[68Ga+3].[OH3+] [[^68Ga]PSMA-11, ^68Ga-labeled Glu-NH-CO-NH-Lys(Ahx)-HBED-CC]
Liver dose factor, conventional method ([1]; TIAC derived with measured organ volumes (liver mass 800–1200 g)): 0.034 mGy/MBq
Effective dose per administration ([1]; administered activity of 2 MBq/kg to a person weighting 80 kg): 3.5 mSv
Effective dose ([1]; calculated for comparison using ICRP Publication 60): 0.022 mSv/MBq
Effective dose ([1]; median, ICRP Publication 103, male component only): 0.022 mSv/MBq
Absorbed dose coefficient, Colon wall, Median ([1]; six participants): 0.014 mGy/MBq
Absorbed dose coefficient, Colon wall, Range ([1]; six participants): 0.012–0.014 mGy/MBq
Absorbed dose coefficient, Endosteum, Median ([1]; six participants): 0.011 mGy/MBq
Absorbed dose coefficient, Endosteum, Range ([1]; six participants): 0.0095–0.011 mGy/MBq
Absorbed dose coefficient, Esophagus, Median ([1]; six participants): 0.014 mGy/MBq
Absorbed dose coefficient, Esophagus, Range ([1]; six participants): 0.011–0.015 mGy/MBq
Absorbed dose coefficient, Kidneys, Median ([1]; six participants): 0.24 mGy/MBq
Absorbed dose coefficient, Kidneys, Range ([1]; six participants): 0.20–0.28 mGy/MBq
Absorbed dose coefficient, Liver, Median ([1]; six participants): 0.053 mGy/MBq
Absorbed dose coefficient, Liver, Range ([1]; six participants): 0.038–0.071 mGy/MBq
Absorbed dose coefficient, Lungs, Median ([1]; six participants): 0.016 mGy/MBq
Absorbed dose coefficient, Lungs, Range ([1]; six participants): 0.013–0.017 mGy/MBq
Absorbed dose coefficient, Red bone marrow, Median ([1]; six participants): 0.015 mGy/MBq
Absorbed dose coefficient, Red bone marrow, Range ([1]; six participants): 0.014–0.015 mGy/MBq
Absorbed dose coefficient, Salivary glands, Median ([1]; six participants): 0.089 mGy/MBq
Absorbed dose coefficient, Salivary glands, Range ([1]; six participants): 0.074–0.15 mGy/MBq
Absorbed dose coefficient, Skin, Median ([1]; six participants): 0.0067 mGy/MBq
Absorbed dose coefficient, Skin, Range ([1]; six participants): 0.0059–0.0069 mGy/MBq
Absorbed dose coefficient, Spleen, Median ([1]; six participants): 0.046 mGy/MBq
Absorbed dose coefficient, Spleen, Range ([1]; six participants): 0.030–0.10 mGy/MBq
Absorbed dose coefficient, Stomach wall, Median ([1]; six participants): 0.015 mGy/MBq
Absorbed dose coefficient, Stomach wall, Range ([1]; six participants): 0.015–0.017 mGy/MBq
Absorbed dose coefficient, Testes, Median ([1]; six participants): 0.0087 mGy/MBq
Absorbed dose coefficient, Testes, Range ([1]; six participants): 0.0074–0.0089 mGy/MBq
Absorbed dose coefficient, Thyroid, Median ([1]; six participants): 0.010 mGy/MBq
Absorbed dose coefficient, Thyroid, Range ([1]; six participants): 0.0090–0.010 mGy/MBq
Absorbed dose coefficient, Urinary bladder wall, Median ([1]; six participants): 0.057 mGy/MBq
Absorbed dose coefficient, Urinary bladder wall, Range ([1]; six participants): 0.028–0.084 mGy/MBq
Absorbed dose coefficient, Eye lenses, Median ([1]; six participants, Monte Carlo methods for lacrimal gland contribution): 0.0051 mGy/MBq
Absorbed dose coefficient, Lacrimal glands, Median [1, 5]: 0.11 mGy/MBq
Absorbed dose coefficient, Lacrimal glands, Range [1, 5]: 0.043–0.2 mGy/MBq
Biological half-life in blood, fast component [2, 6]: 6.5 min
Biological half-life in blood, slow component [2, 6]: 4.4 h
Fraction of blood activity cleared with the 6.5 min half-life ([2]; fast component): 91%
Fraction of blood activity cleared with the 4.4 h half-life ([2]; slow component): 9%
Kidney dose ([3]; Afshar-Oromieh et al. ref 15): 0.262 mGy/MBq
Kidney dose ([3]; Demirci et al. ref 16): 0.246 mGy/MBq
Lacrimal glands absorbed dose ([3]; unit density sphere model, Demirci et al. ref 16): 0.04 ± 0.008 mGy/MBq
Accumulation in kidneys ([4]; intravenous injection, PET/CT): 7%
Accumulation in liver ([4]; intravenous injection, PET/CT): 15%
Accumulation in salivary glands ([4]; intravenous injection, PET/CT): 0.5%
Accumulation in spleen ([4]; intravenous injection, PET/CT): 2%
Liver TIAC, conventional method ([4]; measured organ volumes (liver mass 800–1200 g)): 0.10 h
Time-integrated activity coefficient, Blood, Median ([4]; median of six patients): 0.27 h
Time-integrated activity coefficient, Urinary bladder contents, Median ([4]; median of six patients, 3.5-h voiding interval): 0.11 h
Time-integrated activity coefficient, Kidneys, Median [4, 7]: 0.22 h
Time-integrated activity coefficient, Liver, Median [4, 7]: 0.23 h
Time-integrated activity coefficient, Spleen, Median [4, 7]: 0.021 h
Time-integrated activity coefficient, Salivary glands, Median ([4]; median of six patients, estimated directly from uptake data (Eq. 2)): 0.020 h
Time-integrated activity coefficient, Lacrimal glands, Median ([4]; median of six patients, highest voxel x factor 2, 0.7 g each): 0.00053 h
Time-integrated activity coefficient, Remainder, Median ([4]; median of six patients, rest of the body): 0.68 h
Time-integrated activity coefficient, Blood, P1 ([4]; patient P1): 0.32 h
Time-integrated activity coefficient, Kidneys, P1 ([4]; patient P1): 0.22 h
Time-integrated activity coefficient, Lacrimal glands, P1 ([4]; patient P1): 0.00075 h
Time-integrated activity coefficient, Liver, P1 ([4]; patient P1): 0.26 h
Time-integrated activity coefficient, Remainder, P1 ([4]; patient P1): 0.51 h
Time-integrated activity coefficient, Salivary glands, P1 ([4]; patient P1): 0.036 h
Time-integrated activity coefficient, Spleen, P1 ([4]; patient P1): 0.049 h
Time-integrated activity coefficient, Urinary bladder contents, P1 ([4]; patient P1): 0.12 h
Time-integrated activity coefficient, Blood, P2 ([4]; patient P2): 0.26 h
Time-integrated activity coefficient, Kidneys, P2 ([4]; patient P2): 0.27 h
Time-integrated activity coefficient, Lacrimal glands, P2 ([4]; patient P2): 0.00055 h
Time-integrated activity coefficient, Liver, P2 ([4]; patient P2): 0.15 h
Time-integrated activity coefficient, Remainder, P2 ([4]; patient P2): 0.76 h
Time-integrated activity coefficient, Salivary glands, P2 ([4]; patient P2): 0.020 h
Time-integrated activity coefficient, Spleen, P2 ([4]; patient P2): 0.012 h
Time-integrated activity coefficient, Urinary bladder contents, P2 ([4]; patient P2): 0.094 h
Time-integrated activity coefficient, Blood, P3 ([4]; patient P3): 0.36 h
Time-integrated activity coefficient, Kidneys, P3 ([4]; patient P3): 0.19 h
Time-integrated activity coefficient, Lacrimal glands, P3 ([4]; patient P3): 0.00038 h
Time-integrated activity coefficient, Liver, P3 ([4]; patient P3): 0.22 h
Time-integrated activity coefficient, Remainder, P3 ([4]; patient P3): 0.62 h
Time-integrated activity coefficient, Salivary glands, P3 ([4]; patient P3): 0.021 h
Time-integrated activity coefficient, Spleen, P3 ([4]; patient P3): 0.017 h
Time-integrated activity coefficient, Urinary bladder contents, P3 ([4]; patient P3): 0.13 h
Time-integrated activity coefficient, Blood, P4 ([4]; patient P4): 0.22 h
Time-integrated activity coefficient, Kidneys, P4 ([4]; patient P4): 0.23 h
Time-integrated activity coefficient, Lacrimal glands, P4 ([4]; patient P4): 0.00093 h
Time-integrated activity coefficient, Liver, P4 ([4]; patient P4): 0.23 h
Time-integrated activity coefficient, Remainder, P4 ([4]; patient P4): 0.78 h
Time-integrated activity coefficient, Salivary glands, P4 ([4]; patient P4): 0.017 h
Time-integrated activity coefficient, Spleen, P4 ([4]; patient P4): 0.026 h
Time-integrated activity coefficient, Urinary bladder contents, P4 ([4]; patient P4): 0.041 h
Time-integrated activity coefficient, Blood, P5 ([4]; patient P5): 0.25 h
Time-integrated activity coefficient, Kidneys, P5 ([4]; patient P5): 0.19 h
Time-integrated activity coefficient, Lacrimal glands, P5 ([4]; patient P5): 0.00052 h
Time-integrated activity coefficient, Liver, P5 ([4]; patient P5): 0.19 h
Time-integrated activity coefficient, Remainder, P5 ([4]; patient P5): 0.73 h
Time-integrated activity coefficient, Salivary glands, P5 ([4]; patient P5): 0.030 h
Time-integrated activity coefficient, Spleen, P5 ([4]; patient P5): 0.019 h
Time-integrated activity coefficient, Urinary bladder contents, P5 ([4]; patient P5): 0.16 h
Time-integrated activity coefficient, Blood, P6 ([4]; patient P6): 0.28 h
Time-integrated activity coefficient, Kidneys, P6 ([4]; patient P6): 0.26 h
Time-integrated activity coefficient, Lacrimal glands, P6 ([4]; patient P6): 0.0002 h
Time-integrated activity coefficient, Liver, P6 ([4]; patient P6): 0.31 h
Time-integrated activity coefficient, Remainder, P6 ([4]; patient P6): 0.63 h
Time-integrated activity coefficient, Salivary glands, P6 ([4]; patient P6): 0.017 h
Time-integrated activity coefficient, Spleen, P6 ([4]; patient P6): 0.022 h
Time-integrated activity coefficient, Urinary bladder contents, P6 ([4]; patient P6): 0.050 h
